Key:
Type in all cases: in vivo, mouse
TRAMP mice = assay: Kaplan-Meier survival of TRAMP mice fed fortified diets; conditions: Lycopene treated, not significantly different from Control Diet (11%), P=0.384, unpublished observations
Excerpt: In man, early prostate tumorigenesis appears to be associated with a dysplasia that starts with proliferative inflammatory atrophy which may progress to low-grade Prostatic Intraepithelial Neoplasia (PIN), to high-grade PIN, to primary cancer, to metastatic cancer, and to hormone refractory cancer after hormonal treatment (23,24). Transgenic adenocarcinoma of the mouse prostate (TRAMP) is a model in which the progression of prostate cancer mirrors the stages of the human form, from PIN to undifferentiated, androgen independent tumor (25). Expression od the SV40 early genes driven by the prostate-specific promoter probasin leads to prostate cell transformation and all TRAMP mice develop prostate cancer spontaneously. This model, therefore, is regularly used to assess chemoprevention of prostate cancer (22).
In a recent paper (36), we reported that a tomato diet (Control Diet enriched with 10% of a “tomato powder”, whose composition is reported in Table 1), increased TRAMP mice survival.

VEGF = VEGF serum levels during different diets in TRAMP mice; conditions: FIG. 4; diet fortified 10%; two-ways ANOVA; RED007 P<0.0001; Lycopene P=0.204
Excerpt: FIG. 4: VEGF serum levels during different diets. Values represent mean ±SD(n8mice). […] RED007 may be also designated “Lycoprozen”. The two terms are interchangeable herein.
(§1) FIG. 6: VEGF serum levels during different diets. Values represent mean±SD(n8mice). The control diet was fortified with a 10% mixture of A and B components. The two components were mixed according to different Acomponent/Bcomponent ratios (w/w), i.e. 99.5:0.5, 98.0:2.0 (RED007 diet), and 96.0:4.0, respectively.

IL6 = IL6 serum levels during different diets in TRAMP mice; conditions: FIG. 5; diet fortified 10%; two-ways ANOVA; RED007 P<0.0001; Lycopene P=0.314
Excerpt: FIG. 5: IL6 serum levels during different diets. Values represent mean±SD(n8mice).
as §1, with “7: IL6” for “6: VEGF”, “mean ±SD(n8mice).” for “mean±SD(n8mice).”

`CC(C)=CCC/C(C)=C/C=C/C(C)=C/C=C/C(C)=C/C=C/C=C(C)/C=C/C=C(C)/C=C/C=C(\C)CCC=C(C)C` [Lycopene, lycopene] was tested, and the survival proportion (TRAMP mice) was 17%, the “VEGF serum levels compared to Control Diet” value (VEGF) was “did not significantly modify” and the “IL6 serum levels compared to Control Diet” value (IL6) was “did not significantly modify”.

Source: patent US20160228484A1, “TOMATO POWDER-BASED COMPOSITION” (MEDIAPHARMA S.R.L., priority 2013, published 2016)
